Measured values from PMC5412352 (International Journal of Molecular Sciences, 2017).
“Also recorded” adds a separate entry of the source.

Key:
[1] = molecular target: T1, chemokine CXCR3Rs (Homo sapiens, UniProt P49682); assay: Commercial screening by Eurofins Panlabs; assay type: binding
T1 construct: Eurofins Panlabs (Taiwan), contract screening
T1 sequence (P49682 1-368): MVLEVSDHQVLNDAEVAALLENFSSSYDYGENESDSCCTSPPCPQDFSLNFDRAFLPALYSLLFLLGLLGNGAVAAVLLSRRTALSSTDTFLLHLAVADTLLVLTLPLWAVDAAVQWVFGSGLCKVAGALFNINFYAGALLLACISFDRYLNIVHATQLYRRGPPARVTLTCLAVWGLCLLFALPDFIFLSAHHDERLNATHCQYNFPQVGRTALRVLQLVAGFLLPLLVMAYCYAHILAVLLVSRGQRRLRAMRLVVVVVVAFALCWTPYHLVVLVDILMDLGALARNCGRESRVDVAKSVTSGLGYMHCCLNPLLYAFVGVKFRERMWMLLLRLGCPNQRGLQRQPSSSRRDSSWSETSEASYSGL

[2] = molecular target: T2, muscarinic M1Rs (Homo sapiens, UniProt P11229); assay: Commercial screening by Eurofins Panlabs; assay type: binding
T2 construct: Eurofins Panlabs (Taiwan), contract screening
T2 sequence (P11229 1-460): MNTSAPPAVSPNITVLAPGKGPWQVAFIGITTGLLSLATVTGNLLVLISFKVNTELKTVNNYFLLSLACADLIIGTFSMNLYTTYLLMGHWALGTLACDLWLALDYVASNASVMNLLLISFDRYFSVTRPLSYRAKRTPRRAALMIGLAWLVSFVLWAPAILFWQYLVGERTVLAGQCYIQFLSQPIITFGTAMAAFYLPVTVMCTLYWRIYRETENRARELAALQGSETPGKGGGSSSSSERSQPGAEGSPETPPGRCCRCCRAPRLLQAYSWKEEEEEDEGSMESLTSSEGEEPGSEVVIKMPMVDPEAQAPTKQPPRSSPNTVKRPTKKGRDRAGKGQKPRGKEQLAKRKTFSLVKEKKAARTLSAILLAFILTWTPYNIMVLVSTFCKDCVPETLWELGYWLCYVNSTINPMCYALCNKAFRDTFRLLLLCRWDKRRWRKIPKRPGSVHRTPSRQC

[3] = molecular target: human GhrR (hGhrR-eYFP, HEK293 cell membranes) (Homo sapiens, UniProt Q92847); assay: Competitive radioligand binding assay with [125I-His9]ghrelin at hGhrR membranes
Chain of human GhrR (hGhrR-eYFP, HEK293 cell membranes) (Q92847 whole entry): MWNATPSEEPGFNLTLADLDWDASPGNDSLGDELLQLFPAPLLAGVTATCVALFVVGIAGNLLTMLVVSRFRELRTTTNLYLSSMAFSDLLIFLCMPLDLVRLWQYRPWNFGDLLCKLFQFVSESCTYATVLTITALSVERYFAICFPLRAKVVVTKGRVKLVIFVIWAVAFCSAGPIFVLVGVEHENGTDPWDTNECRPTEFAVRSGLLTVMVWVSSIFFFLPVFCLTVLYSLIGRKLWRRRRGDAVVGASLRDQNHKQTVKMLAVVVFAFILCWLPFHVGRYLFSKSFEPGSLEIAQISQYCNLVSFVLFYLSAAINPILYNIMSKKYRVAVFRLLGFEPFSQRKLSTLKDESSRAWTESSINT
Experimental: Each concentration was tested in duplicate. The membrane-bound radioligand was trapped on a Filtermat B (PerkinElmer) pre-soaked with 0.1% polyethylenimine in H2O by using a filtermat harvester (PerkinElmer). After drying for 20 min at 55 °C, a Meltilex scintillation sheet (PerkinElmer) was melted onto the filtermat and the samples were counted in a Microbeta scintillation counter (PerkinElmer).

IC50 [3]: 2.19 nM
SMILES: Cc1nc2ccc(Oc3ccc(Br)cc3F)nc2c(=O)n1C[C@H]1CCCN(C(C)C)C1 [(S)-9, (S)-6-(4-Bromo-2-fluorophenoxy)-3-((1-isopropylpiperidin-3-yl)methyl)-2-methylpyrido[3,2-d]pyrimidin-4(3H)-one]
significant response (≥50% inhibition or stimulation) [1]: did not show significant responses; also recorded: did not show significant binding
significant response (≥50% inhibition or stimulation) [2]: did not show significant responses; also recorded: did not show significant binding
